From patent publication US20230047816A1 (priority 2018, published 2023)
pIC50: −log10 of the molar value.

Biological target: Recombinant full length human PFKFB3 (Homo sapiens, UniProt Q16875)
Assay: PFKFB3 kinase activity assay (ADP production, ADP-Glo)

Sequence of Recombinant full length human PFKFB3 (Q16875 whole entry): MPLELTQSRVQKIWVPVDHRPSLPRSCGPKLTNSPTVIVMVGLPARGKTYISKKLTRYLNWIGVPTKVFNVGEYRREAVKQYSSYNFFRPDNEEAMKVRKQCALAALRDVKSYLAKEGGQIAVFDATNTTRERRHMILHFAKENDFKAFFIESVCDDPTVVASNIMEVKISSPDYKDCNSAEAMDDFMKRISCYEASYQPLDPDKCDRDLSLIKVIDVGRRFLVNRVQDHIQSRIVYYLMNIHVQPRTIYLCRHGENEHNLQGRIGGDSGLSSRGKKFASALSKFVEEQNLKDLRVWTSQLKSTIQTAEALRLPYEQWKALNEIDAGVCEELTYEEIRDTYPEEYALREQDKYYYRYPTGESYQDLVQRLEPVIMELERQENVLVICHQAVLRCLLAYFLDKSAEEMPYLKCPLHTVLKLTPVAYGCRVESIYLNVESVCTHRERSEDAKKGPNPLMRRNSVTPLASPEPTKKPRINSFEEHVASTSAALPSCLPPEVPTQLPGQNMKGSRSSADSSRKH

Row | Structure (SMILES) | pIC50
1 | N#Cc1c(NC(=O)c2ccc(C(=O)O)cc2C(N)=O)sc(-c2ccccc2)c1-c1ccccc1 [Example 11, 3-carbamoyl-4-[(3-cyano-4,5-diphenylthiophen-2-yl)carbamoyl]benzoic acid] | > 6.30
2 | O=C(O)c1ccc(NC(=O)c2cccc(-c3ccccc3)c2)c(C(=O)O)c1 [Example 17, 4-{[1,1′-biphenyl]-3-amido}benzene-1,3-dicarboxylic acid] | 5.70 to 6.30
3 | CCCCOC(=O)c1ccc2c(c1)C(=O)N(c1cc(OC)c(-c3ccccc3)cc1C(=O)OC)C2=O [Example 39] | > 4.70
4 | CN1CCC(OC(=O)c2ccc(-c3ccc(Cl)cc3Cl)cc2NC(=O)c2cc(O)c(C(=O)O)cc2C(=O)O)C1 (stereo not shown) [Example 67, 4-[(2′,4′-dichloro-4-{[(1-methylpyrrolidin-3-yl)oxy]carbonyl}-[1,1′-biphenyl]-3-yl)carbamoyl]-6-hydroxybenzene-1,3-dicarboxylic acid] | > 6.30
5 | O=C(OCCN1CCCC1)c1ccc(-c2ccc(F)c(F)c2)cc1N1Cc2ccc(-c3c[nH]nn3)cc2C1=O [Compound 115, 3′,4′-Difluoro-3-[1-oxo-6-(1H-[1,2,3]triazol-4-yl)-1,3-dihydroisoindol-2-yl]biphenyl-4-carboxylic acid 2-pyrrolidin-1-yl-ethyl ester] | > 4.70
6 | CC(C)(C)OC(=O)c1ccc(-c2ccc(F)c(F)c2)cc1N1Cc2ccc(-c3c[nH]nn3)cc2C1=O [Compound 117, 3′,4′-Difluoro-3-[1-oxo-6-(1H-[1,2,3]triazol-4-yl)-1,3-dihydro-isoindol-2-yl]-biphenyl-4-carboxylic acid tert-butyl ester] | > 4.70
7 | COc1ccc(-c2c(C)sc(NC(=O)c3ccc(-c4c[nH]nn4)cc3C(N)=O)c2C#N)cc1 [Example 8, N1-[3-cyano-4-(4-methoxyphenyl)-5-methylthiophen-2-yl]-4-(2H-1,2,3-triazol-4-yl)benzene-1,2-dicarboxamide] | 4.70 to 5.30
8 | O=C(OCCN1CCOCC1)c1cc(-c2ccccc2)ccc1N1C(=O)c2ccc(-c3c[nH]nn3)cc2C1=O [Compound 80, 4-[1,3-Dioxo-5-(1H-[1,2,3]triazol-4-yl)-1,3-dihydroisoindol-2-yl]biphenyl-3-carboxylic acid 2-morpholin-4-yl-ethyl ester] | > 4.70
9 | COc1ccc(-c2c(C)sc(N3C(=O)c4ccc(C(=O)N[C@@H](Cc5ccc(O)cc5)C(=O)O)cc4C3=O)c2C#N)cc1 [Compound 136, (2S)-2-({2-[3-Cyano-4-(4-methoxyphenyl)-5-methyl-thiophen-2-yl]-1,3-dioxo-2,3-dihydro-1H-isoindole-5-carbonyl}-amino)-3-(4-hydroxyphenyl)propanoic acid] | 5.30 to 5.70
10 | O=C(O)c1cc2c(cc1Br)C(=O)N(c1cc(-c3ccc(F)c(F)c3)ccc1C(=O)O)C2=O [compound 169, 6-bromo-2-(4-carboxy-3′,4′-difluoro[1,1′-biphenyl]-3-yl)-1,3-dioxo-2,3-dihydro-1H-isoindole-5-carboxylic acid] | > 6.30
11 | CC(COC(=O)c1ccc(-c2ccc(Cl)cc2Cl)cc1NC(=O)c1cc(O)c(C(=O)O)cc1C(=O)O)N(C)C (stereo not shown) [Example 66, 4-[(2′,4′-dichloro-4-{[2-(dimethylamino)propoxy]carbonyl}-[1,1′-biphenyl]-3-yl)carbamoyl]-6-hydroxybenzene-1,3-dicarboxylic acid] | > 6.30
12 | COc1ccc(-c2c(C)sc(NC(=O)c3ccc(C(=O)O)cc3C(=O)NCCN(C)C)c2C#N)cc1 [Example 14, 4-{[3-cyano-4-(4-methoxyphenyl)-5-methylthiophen-2-yl]carbamoyl}-3-{[2-(dimethylamino)ethyl]carbamoyl}benzoic acid] | > 4.70
13 | COC(=O)c1cc(-c2ccccc2)ccc1N1C(=O)c2ccc(C(=O)O)cc2C1=O [Example 12, 2-(3-Methoxycarbonylbiphenyl-4-yl)-1,3-dioxo-2,3-dihydro-1H-isoindole-5-carboxylic acid] | 5.30 to 5.70
14 | O=C(O)c1cc(C(=O)O)c(C(=O)Nc2cc(-c3ccc(Cl)cc3Cl)ccc2C(=O)O)cc1O [Example 43, 4-({4-carboxy-2′,4′-dichloro-[1,1′-biphenyl]-3-yl}carbamoyl)-6-hydroxybenzene-1,3-dicarboxylic acid] | > 6.30
15 | COc1ccc(-c2c(C)sc(N3C(=O)c4ccc(C(=O)NCC(=O)O)cc4C3=O)c2C#N)cc1 [compound 149, 2-(2-(3-cyano-4-(4-methoxyphenyl)-5-methylthiophen-2-yl)-1,3-dioxoisoindoline-5-carboxamido)acetic acid] | > 4.70
16 | O=C(O)c1ccc2c(c1)C(=O)N(c1cc(-c3ccc(F)c(F)c3F)ccc1C(=O)O)C2=O [Compound 139, 2-(4-Carboxy-2′,3′,4′-trifluoro[1,1′-biphenyl]-3-yl)-1,3-dioxo-2,3-dihydro-1H-isoindole-5-carboxylic Acid] | > 6.30
17 | O=C(O)c1cc(C(=O)O)c(C(=O)Nc2cc(-c3ccc(F)c(F)c3)ccc2C(=O)O)cc1Cl [Example 45, 4-({4-carboxy-3′,4′-difluoro-[1,1′-biphenyl]-3-yl}carbamoyl)-6-chlorobenzene-1,3-dicarboxylic acid] | > 6.30
18 | CC1(C)CCN(c2ccc(C(=O)O)c(NC(=O)c3cc(C(=O)O)c(O)cc3C(=O)O)c2)CC1 [Example 56, 2-{[2-carboxy-5-(4,4-dimethylpiperidin-1-yl)phenyl]carbamoyl}-5-hydroxybenzene-1,4-dicarboxylic acid] | > 6.30
19 | CN(C)C(=O)c1cc(C(=O)O)c(O)cc1C(=O)Nc1cc(-c2ccc(Cl)cc2Cl)ccc1C(=O)O [Example 32, 3-(4-carboxy-2-(dimethylcarbamoyl)-5-hydroxybenzamido)-2′,4′-dichloro-[1,1′-biphenyl]-4-carboxylic acid] | 5.70 to 6.30

Row | Structure (SMILES) | pIC50
20 | COC(=O)c1ccc(-c2ccccc2)cc1N1C(=O)c2ccc(C(=O)O)cc2C1=O [Example 37] | 5.70 to 6.30
21 | O=C(O)c1ccc(-c2ccc(F)cc2F)cc1N1C(=O)c2ccc(-c3c[nH]nn3)cc2C1=O [Example 51] | > 6.30
22 | COCCOC(=O)c1ccc(-c2ccccc2)cc1N1C(=O)c2ccc(-c3c[nH]nn3)cc2C1=O [Compound 69, 3-[1,3-Dioxo-5-(1H-[1,2,3]triazol-4-yl)-1,3-dihydroisoindol-2-yl]biphenyl-4-carboxylic acid 2-methoxy-ethyl ester] | 5.30 to 5.70
23 | N#Cc1c(N2C(=O)c3ccc(C(=O)O)cc3C2=O)sc(-c2ccccc2)c1-c1ccccc1 [Compound 133, 2-(3-Cyano-4,5-diphenylthiophen-2-yl)-1,3-dioxo-2,3-dihydro-1H-isoindole-5-carboxylic acid] | > 6.30
24 | COC(=O)c1ccc(-c2ccccc2)cc1N1Cc2ccc(-c3c[nH]nn3)cc2C1=O [Compound 91, 3-[1-Oxo-6-(1H-[1,2,3]triazol-4-yl)-1,3-dihydroisoindol-2-yl]biphenyl-4-carboxylic acid methyl ester] | > 4.70
25 | CCCCS(=O)(=O)NC(=O)c1ccc2c(c1)C(=O)N(c1sc(C)c(-c3ccc(OC)cc3)c1C#N)C2=O [Example 15] | 4.70 to 5.30
26 | CCOC(=O)c1ccc(-c2ccc(Cl)cc2Cl)cc1NC(=O)c1cc(O)c(C(=O)O)cc1C(=O)O [Example 55, 4-{[2′,4′-dichloro-4-(ethoxycarbonyl)-[1,1′-biphenyl]-3-yl]carbamoyl}-6-hydroxybenzene-1,3-dicarboxylic acid] | > 6.30
27 | O=C1c2ccc(-c3c[nH]nn3)cc2C(=O)N1c1cc(-c2ccccc2)cc[n+]1[O-] [Compound 85, 2-{1,3-Dioxo-5-(1H-[1,2,3]triazol-4-yl)-2,3-dihydro-1H-isoindol-2-yl}-4-phenylpyridine N-oxide] | 4.70 to 5.30
28 | COC(=O)c1ccc(-c2ccc(F)c(F)c2)cc1N1Cc2ccc(-c3c[nH]nn3)cc2C1=O [Compound 110, 3′,4′-Difluoro-3-[1-oxo-6-(1H-[1,2,3]triazol-4-yl)-1,3-dihydroisoindol-2-yl]biphenyl-4-carboxylic acid methyl ester] | > 4.70
29 | COc1ccc(-c2c(C)sc(N3C(=O)c4ccc(C(=O)O)cc4C3=O)c2C#N)cc1 [Example 6] | > 6.30
30 | CN(C)C(=O)c1[nH]nnc1-c1ccc2c(c1)C(=O)N(c1cc(-c3ccc(F)c(F)c3)ccc1C(=O)O)C2 [compound 165, 3-(6-(5-(dimethylcarbamoyl)-1H-1,2,3-triazol-4-yl)-1-oxoisoindolin-2-yl)-3′,4′-difluorobiphenyl-4-carboxylic acid] | 5.30 to 5.70
31 | Cc1ccc(-c2ccc(C(=O)O)c(N3C(=O)c4ccc(C(=O)O)cc4C3=O)c2)cc1 [Compound 141, 2-(4-Carboxy-4′-methyl[1,1′-biphenyl]-3-yl)-1,3-dioxo-2,3-dihydro-1H-isoindole-5-carboxylic acid] | > 6.30
32 | CN1CCN(CCOC(=O)c2ccc(-c3ccc(F)c(F)c3)cc2N2Cc3ccc(CO)cc3C2=O)CC1 [compound 155, 2-(4-methylpiperazin-1-yl)ethyl 3′,4′-difluoro-3-(6-(hydroxymethyl)-1-oxoisoindolin-2-yl)biphenyl-4-carboxylate] | > 4.70
33 | CC1(C)CCC(c2ccc(C(=O)O)c(NC(=O)c3cc(C(=O)O)c(O)cc3C(=O)O)c2)CC1 [Example 57, 2-{[2-carboxy-5-(4,4-dimethylcyclohexyl)phenyl]carbamoyl}-5-hydroxybenzene-1,4-dicarboxylic acid] | > 6.30
34 | O=C(O)c1ccc2c(c1)C(=O)N(c1cc(-c3ccc(F)cc3F)ccc1C(=O)O)C2=O [Example 53] | > 6.30
35 | CN(C)CCCOC(=O)c1ccc(-c2ccc(Cl)cc2Cl)cc1NC(=O)c1cc(O)c(C(=O)O)cc1C(=O)O [Example 51, 4-[(2′,4′-dichloro-4-{[3-(dimethylamino)propoxy]carbonyl}-[1,1′-biphenyl]-3-yl)carbamoyl]-6-hydroxybenzene-1,3-dicarboxylic acid] | > 6.30
36 | CS(C)(=O)=NC(=O)c1ccc(C(=O)Nc2cc(-c3ccc(F)c(F)c3)ccc2C(=O)O)c(C(=O)O)c1 [Example 41, 3-(2-carboxy-4-{[methyl(methylidene)oxo-λ^6-sulfanyl]carbamoyl}benzamido)-3′,4′-difluoro-[1,1′-biphenyl]-4-carboxylic acid] | > 6.30
37 | O=C(O)c1cc(C(=O)O)c(C(=O)Nc2cc(N3CC4CCC3C4)ccc2C(=O)O)cc1O (stereo not shown) [Example 58, 4-[(5-{2-azabicyclo[2.2.1]heptan-2-yl}-2-carboxyphenyl)carbamoyl]-6-hydroxybenzene-1,3-dicarboxylic acid] | > 6.30
